Test results taken from patent publication US7091033B2, “Array of toxicologically relevant canine genes and uses thereof” (Phase-1 Molecular Toxicology, Inc., priority 2000, dated 2006).
Where two headings read alike, the source gives them in different places.

Experiments:
[1] = test system: IL-8 gene expression; assay: Measurement of IL-8 dose response: IL-8 gene expression (fold induction) in MDCK cells dosed with cadmium chloride, cDNA probes on canine array; format: cell-based; details: MDCK cells dosed for 24 hrs at 0.1 μM, 1 μM, and 10 μM; FIG. 3
Description: Dosage response is an important concept in toxicology. Depending on the dosage of a toxin or agent which may be toxic, the gene expression profile of a particular gene may vary. One way that this can be envisioned is by observing the changes in fold induction of a particular gene when analyzed using the arrays of this invention. The dosages determined in dose response curves may be useful in determining “threshold” levels of toxicity, for example for FDA approval. Example 15 and FIG. 3 illustrate this embodiment. Methods of analyzing gene expression and how to correlate gene expression data are provided herein.
Fluorescence-labeled first strand cDNA probe was made from total or mRNA by first isolating RNA from control and treated cells, disclosed supra. […]
The volume of each sample that would contain 20 μg of total RNA (or 2 μg of mRNA) was calculated. The amount of DEPC water needed to bring the total volume of each RNA sample to 14 μl was also calculated. […]
Then the appropriate volume of each RNA sample was added to the labeled PCR tube. […] The tubes were kept on ice until all samples are ready for the next step. It is preferable for the tubes to kept on ice until the next step is ready to proceed. The samples were incubated in a PCR machine for 10 minutes at 70° C. followed by 4° C. incubation period until the sample tubes were ready to be retrieved. […]

[2] = test system: Cytochrome P450 2D (gene expression); assay: Canine array fold induction of canine genes in kidney of dogs dosed with an agent (Table 11); format: in vivo; details: dog, kidney, 0.3 mg/kg, canine kidney, 10 days
Description: (§1) Table 11 depicts the fold induction for canine genes in a canine array.

[3] = test system: Cytochrome P450 2B (gene expression); assay: as above; format: in vivo; details: dog, kidney, 0.3 mg/kg, canine kidney, 10 days
Description: as §1

[4] = test system: Cytochrome P450 2C41 (gene expression); assay: as above; format: in vivo; details: dog, kidney, 0.3 mg/kg, canine kidney, 10 days
Description: as §1

[5] = test system: canine genes in a canine array (Canine kidney); assay: as above; format: in vivo; details: canine kidney, 0.3 mg/kg, 10 days; for fold induction at 0.3 mg/kg: Canis lupus familiaris, 240 h
Description: as §1

[6] = test system: canine genes of the array; assay: Canine array fold induction of canine genes in liver of canines dosed with test agents (Table 11); format: in vivo; details: dog, 0.3 mg/kg, gene = c0 of the row
Description: as §1

[7] = test system: canine genes of the array; assay: Canine array fold induction of canine genes in kidney of canines dosed with test agents (Table 11); format: in vivo; details: dog, 0.3 mg/kg, 10 days, gene = c0 of the row
Description: as §1

For `[Cl][Cd][Cl]` [cadmium chloride], the “IL-8 gene expression, fold induction” value [1] was “fold induction varies with the dosage”.

`C[C@]12CC[C@@H]3c4ccc(O)cc4CC[C@H]3[C@@H]1CC[C@@H]2O` [Estradiol] showed a fold induction at 10 days [2] of 1.2, a fold induction at 10 days [3] of 1.2 and a fold induction at 10 days [4] of 1.7. The fold induction at 0.3 mg/kg ([5]; read-out: Alkaline phosphatase fold induction) was 1.4, the fold induction at 0.3 mg/kg ([5]; read-out: Angiopoietin-related protein 3 (ANGPTL3) fold induction) was 1.1 and the fold induction at 0.3 mg/kg ([5]; read-out: BRCA1 fold induction) was 1.1. For the same molecule, the fold induction at 0.3 mg/kg ([5]; read-out: Beta-glucuronidase fold induction) was 1.3, the fold induction at 0.3 mg/kg ([5]; read-out: CD40 ligand fold induction) was 1.1 and the fold induction at 0.3 mg/kg ([5]; read-out: Catalase fold induction) was 1.2. The fold induction at 0.3 mg/kg ([5]; read-out: Caveolin-1 fold induction) was 1.4, the fold induction at 0.3 mg/kg ([5]; read-out: Caveolin-2 fold induction) was 1.7 and the fold induction at 0.3 mg/kg ([5]; read-out: Cubilin fold induction) was 1.1. The fold induction at 0.3 mg/kg ([5]; read-out: Cytochrome c oxidase subunit VIIaL fold induction) was 1, the fold induction at 0.3 mg/kg ([5]; read-out: c-erb B-2 fold induction) was 1.3 and the “Alkaline phosphatase fold induction” value [5] was 1.6. The Caveolin-2 fold induction [5] was 1.6, the fold induction at 10 days ([6]; 0.3 mg/kg, 10196, Canine Liver, 10 days) was 1 and the fold induction at 10 days ([6]; 0.3 mg/kg, 10316, Canine liver, 10 day) was 1.2. It also gave a fold induction at 10 days ([7]; 0.3 mg/kg, 10087, canine kidney) of 1.6 and a fold induction at 10 days ([7]; 0.3 mg/kg, 10089, canine kidney) of 1.
